Assay results taken from ChEMBL document CHEMBL1141904, “Benzothiophenes containing a piperazine side chain as selective ligands for the estrogen receptor alpha and their bioactivities in vivo” (Bioorg Med Chem Lett, 2005).

Key:
[1] = target: T1, Estrogen receptor (Mus musculus) (UniProt P19785); conditions: Uterus
T1 sequence (whole entry): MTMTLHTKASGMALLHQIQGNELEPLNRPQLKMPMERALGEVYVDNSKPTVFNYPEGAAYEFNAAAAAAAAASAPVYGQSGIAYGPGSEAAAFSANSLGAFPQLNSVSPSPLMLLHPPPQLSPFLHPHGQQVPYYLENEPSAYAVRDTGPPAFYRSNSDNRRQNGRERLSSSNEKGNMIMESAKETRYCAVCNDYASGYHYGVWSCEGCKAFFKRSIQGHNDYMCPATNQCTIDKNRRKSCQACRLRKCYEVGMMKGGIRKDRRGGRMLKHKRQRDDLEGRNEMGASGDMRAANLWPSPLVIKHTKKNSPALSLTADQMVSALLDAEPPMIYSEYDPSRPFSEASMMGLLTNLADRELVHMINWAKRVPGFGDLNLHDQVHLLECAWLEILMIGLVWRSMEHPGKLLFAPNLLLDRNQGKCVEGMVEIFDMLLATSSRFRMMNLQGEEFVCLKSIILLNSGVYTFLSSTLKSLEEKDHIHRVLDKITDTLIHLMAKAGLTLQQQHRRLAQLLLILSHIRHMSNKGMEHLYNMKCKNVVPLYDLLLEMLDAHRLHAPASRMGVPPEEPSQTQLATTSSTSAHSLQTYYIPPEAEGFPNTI
Description: Uterine weight assay of compound was determined in vivo against estrogen receptor alpha

[2] = target: T1, Estrogen receptor (Mus musculus)
Description: Bone mineral density of compound was determined in vivo against estrogen receptor alpha

Estrogen receptor = target: T2, Estrogen receptor (Homo sapiens, UniProt P03372)
T2 sequence (P03372 whole entry): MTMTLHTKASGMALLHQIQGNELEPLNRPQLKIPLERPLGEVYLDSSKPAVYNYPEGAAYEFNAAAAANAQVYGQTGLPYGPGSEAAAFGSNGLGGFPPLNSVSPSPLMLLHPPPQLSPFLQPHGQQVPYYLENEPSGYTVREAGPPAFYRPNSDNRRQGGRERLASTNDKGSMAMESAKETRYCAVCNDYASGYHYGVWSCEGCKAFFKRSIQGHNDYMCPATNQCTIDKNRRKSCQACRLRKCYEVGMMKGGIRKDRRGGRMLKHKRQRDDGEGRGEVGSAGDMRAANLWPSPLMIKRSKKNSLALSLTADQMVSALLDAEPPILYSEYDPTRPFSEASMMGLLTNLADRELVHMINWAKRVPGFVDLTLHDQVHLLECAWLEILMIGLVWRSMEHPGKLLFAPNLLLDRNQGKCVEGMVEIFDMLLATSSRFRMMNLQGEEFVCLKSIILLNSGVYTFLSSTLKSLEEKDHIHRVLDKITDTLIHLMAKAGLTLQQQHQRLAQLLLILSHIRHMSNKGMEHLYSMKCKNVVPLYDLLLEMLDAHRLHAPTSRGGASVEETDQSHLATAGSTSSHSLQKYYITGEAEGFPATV
Description: Inhibition of estrogen receptor alpha

Estrogen receptor beta = Estrogen receptor beta (Homo sapiens, UniProt Q92731); assay: Inhibition of estrogen receptor beta
Estrogen receptor beta, sequence (Q92731 whole entry): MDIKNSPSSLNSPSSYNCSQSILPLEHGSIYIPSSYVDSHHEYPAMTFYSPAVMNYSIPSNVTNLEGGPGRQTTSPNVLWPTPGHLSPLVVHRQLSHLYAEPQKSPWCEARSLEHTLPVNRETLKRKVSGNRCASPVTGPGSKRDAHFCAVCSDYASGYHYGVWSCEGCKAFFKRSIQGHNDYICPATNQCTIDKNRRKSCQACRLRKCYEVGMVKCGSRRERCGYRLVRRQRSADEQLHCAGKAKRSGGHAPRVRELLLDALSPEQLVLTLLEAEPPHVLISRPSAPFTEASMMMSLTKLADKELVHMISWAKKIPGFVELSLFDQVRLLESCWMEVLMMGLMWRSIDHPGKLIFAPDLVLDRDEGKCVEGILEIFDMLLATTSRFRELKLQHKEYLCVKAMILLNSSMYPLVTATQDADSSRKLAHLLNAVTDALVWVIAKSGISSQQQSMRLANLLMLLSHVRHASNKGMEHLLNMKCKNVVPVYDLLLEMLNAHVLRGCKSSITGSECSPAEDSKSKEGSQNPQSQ

Row | SMILES | Uterine weight [1] [mg] | Bone mineral density [2] [mg/cubic cm] | IC50 (Estrogen receptor) [nM] | IC50 (Estrogen receptor beta) [nM]
1 | O=C(c1ccc(N2CCN(C(=O)c3cccc(Cl)c3)CC2)cc1)c1c(-c2ccc(O)cc2)sc2cc(O)ccc12 | 29.3 | 432 | 0.46 | 3.7
2 | O=C(c1ccc(N2CCN(C(=O)c3ccncc3)CC2)cc1)c1c(-c2ccc(O)cc2)sc2cc(O)ccc12 |  |  | 14.5 | 93.6
3 | Cc1ccc(C(=O)N2CCN(c3ccc(C(=O)c4c(-c5ccc(O)cc5)sc5cc(O)ccc45)cc3)CC2)cc1 |  |  | 2.74 | 4.94
4 | O=C(c1ccc(N2CCN(Cc3ccccc3)CC2)cc1)c1c(-c2ccc(O)cc2)sc2cc(O)ccc12 |  |  | 0.97 | 5.53
5 | O=C(c1ccc(N2CCN(c3ccc(Cl)cc3)CC2)cc1)c1c(-c2ccc(O)cc2)sc2cc(O)ccc12 | 30.5 | 482 | 0.22 | 9.07
6 | O=C(c1ccc(N2CCN(C(=O)c3ccc(Cl)cc3)CC2)cc1)c1c(-c2ccc(O)cc2)sc2cc(O)ccc12 |  |  | 0.78 | 4.02
7 | Cc1cc(C)nc(N2CCN(c3ccc(C(=O)c4c(-c5ccc(O)cc5)sc5cc(O)ccc45)cc3)CC2)n1 |  |  | 2.12 | 66.5
8 | CC(C)N1CCN(c2ccc(C(=O)c3c(-c4ccc(O)cc4)sc4cc(O)ccc34)cc2)CC1 | 38.8 | 541 | 0.28 | 33.9
9 | O=C(c1ccc(N2CCN(C3CCCC3)CC2)cc1)c1c(-c2ccc(O)cc2)sc2cc(O)ccc12 |  |  | 1.08 | 18.1
10 | O=C(c1ccc(N2CCN(C(=O)c3ccco3)CC2)cc1)c1c(-c2ccc(O)cc2)sc2cc(O)ccc12 |  |  | 2.65 | 20.1
11 | O=C(c1ccc(N2CCN(Cc3ccc([N+](=O)[O-])cc3)CC2)cc1)c1c(-c2ccc(O)cc2)sc2cc(O)ccc12 |  |  |  | 14.2
12 | CCCN1CCN(c2ccc(C(=O)c3c(-c4ccc(O)cc4)sc4cc(O)ccc34)cc2)CC1 |  |  | 1.43 | 29.4

Next, values leading:

Row | Uterine weight [1] [mg] | Bone mineral density [2] [mg/cubic cm] | IC50 (Estrogen receptor) [nM] | IC50 (Estrogen receptor beta) [nM] | SMILES
13 |  |  | 3.94 | 17.7 | Cc1ccccc1C(=O)N1CCN(c2ccc(C(=O)c3c(-c4ccc(O)cc4)sc4cc(O)ccc34)cc2)CC1
14 |  |  | 3.05 | 7.92 | O=C(c1ccc(N2CCN(C(=O)c3ccccc3O)CC2)cc1)c1c(-c2ccc(O)cc2)sc2cc(O)ccc12
15 |  |  | 2.15 | 1.27 | O=C(c1ccc(N2CCN(C(=O)c3ccc([N+](=O)[O-])cc3)CC2)cc1)c1c(-c2ccc(O)cc2)sc2cc(O)ccc12
16 |  |  | 3.58 | 12.9 | O=C(c1ccc(N2CCN(C(=O)c3ccccc3[N+](=O)[O-])CC2)cc1)c1c(-c2ccc(O)cc2)sc2cc(O)ccc12
17 |  |  | 1.72 | 3.21 | O=C(c1ccc(N2CCN(C(=O)c3ccccc3Cl)CC2)cc1)c1c(-c2ccc(O)cc2)sc2cc(O)ccc12
18 |  |  | 0.86 | 25.3 | O=C(c1ccc(N2CCN(C(=O)c3ccccc3)CC2)cc1)c1c(-c2ccc(O)cc2)sc2cc(O)ccc12
19 |  |  | 0.27 | 12.5 | Cc1cccc(C(=O)N2CCN(c3ccc(C(=O)c4c(-c5ccc(O)cc5)sc5cc(O)ccc45)cc3)CC2)c1
20 |  |  | 1.39 | 19.8 | O=C(c1ccc(N2CCN(C(=O)c3cccc(O)c3)CC2)cc1)c1c(-c2ccc(O)cc2)sc2cc(O)ccc12
